What was measured:
mesentery venules = assay: Vasodilator properties, microcirculatory vessel responsiveness to noradrenalin, venules; assay type: in vivo, Wistar male rats
Experimental: (§1) Vasodilator properties of N,N′-substituted piperazines were evaluated according to their influence on microcirculatory vessel responsiveness.
(§2) The studies were done on Wistar male rats with mass of 300±30 g (laboratory animals nursery “Rappolovo”, RAMS). The animals were kept with unlimited food (standard ration for laboratory rats K-120 by <<Inform-korm>>, Russia) and water allowance.
(§3) The solutions of N,N′-substituted piperazines and physiological (control) solution were introduced via bolus injection within 1 min into caudal vein of non-anaesthetized animals according to the dosage of 5.0 ml per 1 kg. Immediately after the introduction the animals were put in separate standard cages for observation.
(§4) In 30 min after the injection the animals were anaesthetized (thiopental sodium, 60 mg/kg intraperitoneally). The loop of small intestine adjoined to mesoappendix was retrieved through inferomedian incision. To study microcirculation in mesentery venules and arterioles in transmitted light the rat was placed on thermostated microscope objective table. The application of noradrenalin solution (Aguettant, 2 mg/ml, Laboratoire AGUETTANT, France) was done directly on the mesentery (Furness J. B., Marshall J. M., 1974; Yantareva L. I., 2004).
(§5) The study of microcirculatory vessels was done with LUMAM I1 microscope (LOMO, Russia). The recording of video data was done with the camera (Optics and Electronics ISTA Ltd) attached to a personal computer. The processing of data was done with Video-Test 4.0 software (ISTA Ltd., Russia). The diameter of the vessel wall (D, m) before and after the application of noradrenalin and the starting time of blood flow slowdown induced by noradrenalin were measured (the measurements were done for 1 min after the application).

mesentery arterioles = assay: Vasodilator properties, microcirculatory vessel responsiveness to noradrenalin, arterioles; assay type: in vivo, Wistar male rats
Experimental: as §1, §2, §3, §4, §5

[1] = test system: Collagen-induced thrombocyte aggregation; assay: Collagen-induced thrombocyte aggregation, donor human thrombocyte enriched plasm; assay type: cell-based; conditions: collagen inductor; for MA, %: human thrombocyte plasm
Summary of the method: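 Citrated donor platelet-rich plasma normalized to 200-250×10^9/L was preincubated with compound in Tris-HCl pH 7.4 for 5 min at 37° C. before adding collagen diluted to 10 µg/ml. Aggregation was followed turbidimetrically for 3 min at 1200 rpm stirring, as maximum amplitude (% transmittance relative to platelet-poor plasma).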

[2] = test system: Ristocetin-induced thrombocyte aggregation; assay: Ristocetin-induced thrombocyte aggregation, donor human thrombocyte enriched plasm; assay type: cell-based; conditions: ristocetin inductor; for MA (60 c), %: amplitude at 60 s
Experimental: The study of antiaggregant and anticoagulant properties of N,N′-substituted piperazines on the sample of donor human blood. The blood was collected by donor ulnar vein punction with dry sharp needle without syringe. The administration of drugs that influence on thrombocyte function was cancelled in 7÷10 days before the experiment.
In graduated plastic centrifuge tube 1 ml of 3.8% basic trisodium citrate solution with pH=7.4 was placed. The ulnar vein was punctuated, the freely effluent blood was collected up to 10 ml mark, the mixture was instantly stirred to prevent air bubbles appearance. The collected and stabilized blood was split in two 5 ml portions in two tubes.
To obtain thrombocyte enriched plasm the stabilized blood was spinned at 1000 rpm (150 g) for 8 min at room temperature. The repeated spinning of the blood at 3200 rpm (2300 g) for 20 min at 22° C. yielded thrombocyte depleted plasm.
The study of anticoagulant activity was done within 2 h after thrombocyte enriched plasm obtaining. The plasm was normalized to achieve thrombocyte concentration of 200-250×10^9/L by addition of thrombocyte-free plasm. The concentration of thrombocytes was measured on SOLAR AR 2110 analyzer.
Antiaggregant properties of N,N′-substituted piperazines were evaluated by their influence on thrombocyte aggregation in tests with ADP-, collagen- and ristocetin-induced aggregation. To dissolve N,N′-substituted piperazines and to dilute reagents Tris-HCl-buffer with pH=7.4 was used.
As the general characteristic of thrombocyte aggregation activity the maximum amplitude (MA) of aggregation was taken on. That is the peak value of transmittance coefficient of the sample after aggregation agent introduction expressed in % relative to the transmittance of thrombocyte-free plasm. The response was registered on ascending linear segment of aggregation curve for 16 s.
The measurements were done using 4-channel CHRONO-LOG 490-4D analyzer (CHRONO-LOG, USA). The temperature in the cell was 37° C., the spinning speed of magnetic stirrer was 1200 rpm.
In a cuvette 0.5 ml of N,N′-substituted piperazine solution was placed, then 0.4 ml of normalized thrombocyte plasm was added. The mixture was stirred and incubated at 37° C. for 5 min. The cuvette was placed in aggregometer, then 0.05 ml of aggregation inductor solution was added (ADP or collagen or ristocetin). Thrombocyte aggregation was measured for 3 min.
To study ristocetin-induced thrombocyte aggregation CHRONO-PAR RISTOCETIN reagent (CHRONO-LOG, USA) was diluted with buffer solution until ristocetin concentration reached 12 mg/ml. Thrombocyte aggregation amplitude was measured in 60 s after the beginning of the reaction.

[3] = test system: experimental photothrombosis; assay: Experimental photothrombosis model, arterial blood velocity; assay type: in vivo, Wistar male rats
Experimental: The studies were done on Wistar male rats with mass of 230±30 g (laboratory animals nursery “Rappolovo”, RAMS). The animals were kept with unlimited food (standard ration for laboratory rats K-120 by <<Inform-korm>>, Russia) and water allowance. […]
Thrombosis modeling: the drugs were introduced into left femoral vein, in 50 min afterwards 1 ml of Bengal rose A photosensitizer (Acros Organics, USA) solution was introduced with dose of 17 mg/kg [Boselli 2007, Petrischev 2009]. Then the incision of internal surface of animal right thigh about 2 cm in length was made. The section of the femoral vein about 5 mm in length was released from surrounding tissues and separated from neurovascular bundle. Beneath this section of the vein the black non-transparent plastic strip 3 mm in width was laid to screen off the vein and surrounding tissues from radiation. The irradiation was done using diode laser <<DPSS-laser>> (Diode Pumped Solid State Laser, South Korea) with 532 nm wavelength and 60 mW power. The area of irradiation was 1 mm^2, exposing time was 40 min. The blood flow in femoral artery was measured by high frequency Doppler ultrasonography method (<<Minimax-Doppler-K>> apparatus, frequency of sensor was 20 MHz). The blood velocity alteration due to irradiation was measured (Table 9).

[4] = 0.01 mmol/kg, noradrenalin 10^−6 g/ml
[5] = 0.025 mmol/kg, noradrenalin 10^−7 g/ml

O=C(O)/C=C/c1ccc(Cn2ccnc2)cc1 [Ozagrel, reference compound]
% of vessel constriction (mesentery venules; [4]): 44%
Blood flow slowdown, Latent period of slowdown (mesentery venules; [4]): 32 ± 4 s
% of vessel constriction (mesentery venules; [5]): 27%
Blood flow slowdown, Latent period of slowdown, s (mesentery venules; [5]): No slowdown
% of vessel constriction (mesentery arterioles; [4]): 80%
Blood flow slowdown, Latent period of slowdown (mesentery arterioles; [4]): 27 ± 6 s
% of vessel constriction (mesentery arterioles; [5]): 27%
Blood flow slowdown, Latent period of slowdown, s (mesentery arterioles; [5]): No slowdown
MA, % ([1]; 0.5 mmol/L): 74.3 ± 7.9%
MA, % ([1]; 1.25 mmol/L): 64.1 ± 12.0%
MA, % ([1]; 2.5 mmol/L): 60.0 ± 2.5%
MA, % ([1]; 5.0 mmol/L): 54.0 ± 12.9%
MA, % ([1]; 7.5 mmol/L): 34.2 ± 11.2%
inhibition at 500 µM ([1]; Homo sapiens, 0.5 mmol/L, read-out: (MA0-MAx): MA0 * 100%): 3.1%
inhibition at 1250 µM ([1]; Homo sapiens, 1.25 mmol/L, read-out: (MA0-MAx): MA0 * 100%): 16.4%
inhibition at 2500 µM ([1]; Homo sapiens, 2.5 mmol/L, read-out: (MA0-MAx): MA0 * 100%): 21.8%
inhibition at 5000 µM ([1]; Homo sapiens, 5.0 mmol/L, read-out: (MA0-MAx): MA0 * 100%): 29.6%
inhibition at 7500 µM ([1]; Homo sapiens, 7.5 mmol/L, read-out: (MA0-MAx): MA0 * 100%): 55.4%
(MAx-MA0): MA0 * 100% (Ozagrel: (MA0-MAx): MA0 * 100%) ([2]; 1.25 mmol/L): 8.0%
MA (60 c), % ([2]; 1.25 mmol/L): 58.6 ± 9.1%
(MAx-MA0): MA0 * 100% (Ozagrel: (MA0-MAx): MA0 * 100%) ([2]; 2.5 mmol/L): 28.4%
MA (60 c), % ([2]; 2.5 mmol/L): 45.6 ± 9.5%
(MAx-MA0): MA0 * 100% (Ozagrel: (MA0-MAx): MA0 * 100%) ([2]; 5.0 mmol/L): 44.1%
MA (60 c), % ([2]; 5.0 mmol/L): 35.6 ± 8.5%
V, cm/s (arterial blood velocity) ([3]; 0.01 mmol/kg, 0 min of irradiation): 10.9 ± 2.9 cm/s
V, cm/s (arterial blood velocity) ([3]; 0.01 mmol/kg, 10 min of irradiation): 5.7 ± 1.8 cm/s
V, cm/s (arterial blood velocity) ([3]; 0.01 mmol/kg, 20 min of irradiation): Absence of blood flow
V, cm/s (arterial blood velocity) ([3]; 0.01 mmol/kg, 30 min of irradiation): Absence of blood flow
V, cm/s (arterial blood velocity) ([3]; 0.01 mmol/kg, 40 min of irradiation): Absence of blood flow
V, cm/s (arterial blood velocity) ([3]; 0.025 mmol/kg, 0 min of irradiation): 9.0 ± 2.7 cm/s
V, cm/s (arterial blood velocity) ([3]; 0.025 mmol/kg, 10 min of irradiation): 5.1 ± 1.7 cm/s
V, cm/s (arterial blood velocity) ([3]; 0.025 mmol/kg, 20 min of irradiation): 3.8 ± 1.0 cm/s
V, cm/s (arterial blood velocity) ([3]; 0.025 mmol/kg, 30 min of irradiation): 5.5 ± 1.4 cm/s
V, cm/s (arterial blood velocity) ([3]; 0.025 mmol/kg, 40 min of irradiation): 5.8 ± 1.7 cm/s
